Experimental data taken from patent publication US20250049800A1, “VCP/p97 INHIBITOR FOR THE TREATMENT OF CANCER” (CASI Pharmaceuticals, Inc., priority 2021, published 2025).
Values joined by “and” are separate entries in the source; they are usually repeats but may differ in a detail not shown here. Equal values may be shown once.

Legend:
[1] = Phase I study: safety, adverse events and visual symptoms; assay type: in vivo, human
Procedure: Similar dosing may be used in the dose expansion part of the study. BID dosing may be also tested depending on initial PK assessments. Participants were evaluated regularly for safety assessments including physical examinations and laboratory testing. Bone marrow aspirates and/or biopsies are performed at regular intervals, including for assessment of tumor response as per 2017 European LeukemiaNet (ELN) response criteria for AML or 2006 revised International Working Group (IWG) response criteria for MDS. Peripheral blood samples are collected in Cycle 1 for intensive PK testing and PD biomarker assessments. Additional intensive PK testing is collected for any participants undergoing intra-patient dose escalation.

[2] = Phase I study: plasma pharmacokinetics of orally administered Compound 1; assay type: in vivo, human; settings: for AUC(0-inf) / AUC(0-t) / Cmax / half-life / Tmax: human, plasma, oral
Source text: The study was designed as a multicenter, open-label Phase 1 study of orally administered Compound 1 in participants with R/R AML or participants with R/R intermediate- to high-risk MDS. […] Additional cohorts for participants with R/R intermediate- to high-risk MDS following hypomethylating agents or other AML cohorts may be added at a later time.
Similar dosing may be used in the dose expansion part of the study. […] Additional intensive PK testing is collected for any participants undergoing intra-patient dose escalation.
At the conclusion of the 900 mg QD cohort, subjects were enrolled in cohorts for BID dosing, starting with the 300 mg BID dosing.
Subjects were treated with Compound 1 QD as described in Example 2.
Subjects were treated with Compound 1 QD or BID dosing as described in Example 2 and blood samples were taken from subjects and analyzed as described in Example 3. Tables 16 and 17 show pharmacokinetic analyses for QD dosing for 100 mg, 175 mg, 275 mg, 350 mg, 400 mg and 900 mg cohorts and BID dosing for 300 mg and 350 mg cohorts. Abbreviations in Table 16 and Table 17: AR=Day 4 AUC0-24/Day 1 AUC0-24, NR=not reported; NA=not available. […] FIG. 9 and FIG. 10 show AUC for day 1 and day 4 of dosing with doses between 350-900 mg QD compared with 350 mg BID.

[3] = 300 mg, 300 mg BID, Day 1, 1 subject
[4] = 300 mg, 300 mg BID, Day 4, 1 subject
[5] = 350 mg, 350 mg BID, Day 1, Mean
[6] = 350 mg, 350 mg BID, Day 4, Mean

With `Cc1cc2c(C(N)=O)cccc2n1-c1nc2c(c(NCc3ccccc3)n1)CCCN2` [Compound 1, 1-(4-(benzylamino)-5,6,7,8-tetrahydropyrido[2,3-d]pyrimidin-2-yl)-2-methyl-1H-indole-4-carboxamide] the adverse events ([1]; cohorts dosed 25 mg to 450 mg QD) was “No adverse events were observed”, the “visual adverse events at plasma exposure equivalent to CB-5083” value ([1]; highest doses) was “no lasting symptoms” and the “symptoms of visual impairment” value ([1]; lower dose cohorts) was “No symptoms of visual impairment”. For the same compound, the “visual adverse events at plasma exposure equivalent to CB-5083” value ([1]; lower doses) was “no symptoms of visual impairment or other visual adverse events”, the visual symptoms ([1]; two patients in cohort X) was “low-grade visual symptoms on the day of dosing that did not persist” and the “exposure level increases between the doses” value ([2]; 25 mg to 450 mg QD) was “generally proportional and linear”. The Cmax/Dose ([2]; 100 mg QD, Day 1, Mean) was 0.00372 µM/mg, the “exposure of BID dosing compared with QD dosing” value ([2]; 350 mg BID vs 600, 750 and 900 mg QD, Day 1) was “higher level of exposure” and the Cmax/Dose ([2]; 450 mg QD, Day 1, Mean) was 0.00481 µM/mg. For the same compound, the AUC0-inf/Dose ([2]; 450 mg QD, Day 4, Mean) was 0.0853 µM·h/mg, the AR ([2]; Cohort 1 (25 mg QD), Day 4) was 0.914 and the “plasma exposure compared with CB-5083” value ([2]; Compound 1 25 mg QD vs CB-5083 40 mg QD) was “significantly higher plasma exposure”. For the same compound, the accumulation ([2]; between days 1 and 4) was “No accumulation”, the “plasma exposure compared with CB-5083” value ([2]; human subjects) was “significantly higher plasma exposure than CB-5083” and the AUC(0-inf) ([2]; 100 mg, 100 mg QD, Day 1, Mean) was 1780 ng·h/mL and 4.31 µM·h. The AUC(0-t) ([2]; 100 mg, 100 mg QD, Day 1, Mean) was 1420 ng·h/mL and 3.43 µM·h, the Cmax ([2]; 100 mg, 100 mg QD, Day 1, Mean) was 154 ng/mL and 372 nM and the half-life ([2]; 100 mg, 100 mg QD, Day 1, Mean) was 6.87 h. For the same compound, the AUC(0-inf) ([2]; 100 mg, 100 mg QD, Day 4, Mean) was 3020 ng·h/mL and 7.32 µM·h, the AUC(0-t) ([2]; 100 mg, 100 mg QD, Day 4, Mean) was 2750 ng·h/mL and 6.66 µM·h and the Cmax ([2]; 100 mg, 100 mg QD, Day 4, Mean) was 356 ng/mL and 861 nM. The Tmax ([2]; 100 mg, 100 mg QD, Day 4, Mean) was 2.67 h, the half-life ([2]; 100 mg, 100 mg QD, Day 4, Mean) was 7.84 h and the AUC(0-inf) ([2]; 175 mg, 175 mg QD, Day 1, Mean) was 5260 ng·h/mL and 12.7 µM·h. The AUC(0-t) ([2]; 175 mg, 175 mg QD, Day 1, Mean) was 4380 ng·h/mL and 10.6 µM·h, the Cmax ([2]; 175 mg, 175 mg QD, Day 1, Mean) was 636 ng/mL and the Tmax ([2]; 175 mg, 175 mg QD, Day 1, Mean) was 3.33 h. For the same compound, the half-life ([2]; 175 mg, 175 mg QD, Day 1, Mean) was 11.4 h, the AUC(0-inf) ([2]; 175 mg, 175 mg QD, Day 4, Mean) was 2950 ng·h/mL and 7.13 µM·h and the AUC(0-t) ([2]; 175 mg, 175 mg QD, Day 4, Mean) was 8760 ng·h/mL and 21.2 µM·h. For the same compound, the Cmax ([2]; 175 mg, 175 mg QD, Day 4, Mean) was 490 ng/mL and 1.19 µM, the Tmax ([2]; 175 mg, 175 mg QD, Day 4, Mean) was 13.5 h and the half-life ([2]; 175 mg, 175 mg QD, Day 4, Mean) was 6.01 h. The AUC(0-inf) ([2]; 275 mg, 275 mg QD, Day 1, Mean) was 4660 ng·h/mL and 11.3 µM·h, the AUC(0-t) ([2]; 275 mg, 275 mg QD, Day 1, Mean) was 4140 ng·h/mL and 10 µM·h and the Cmax ([2]; 275 mg, 275 mg QD, Day 1, Mean) was 679 ng/mL and 1.65 µM. The Tmax ([2]; 275 mg, 275 mg QD, Day 1, Mean) was 2.57 h, the half-life ([2]; 275 mg, 275 mg QD, Day 1, Mean) was 5.08 h and the AUC(0-inf) ([2]; 275 mg, 275 mg QD, Day 4, Mean) was 9660 ng·h/mL and 23.4 µM·h. For the same compound, the AUC(0-t) ([2]; 275 mg, 275 mg QD, Day 4, Mean) was 9230 ng·h/mL and 22.4 µM·h, the Cmax ([2]; 275 mg, 275 mg QD, Day 4, Mean) was 827 ng/mL and 2 µM and the Tmax ([2]; 275 mg, 275 mg QD, Day 4, Mean) was 3.6 h. For the same compound, the half-life ([2]; 275 mg, 275 mg QD, Day 4, Mean) was 8.9 h, the AUC(0-t) [2, 3] was 12200 ng·h/mL and 29.6 µM·h and the Cmax [2, 3] was 965 ng/mL and 2.34 µM. For the same compound, the Tmax [2, 3] was 12 h, the AUC(0-inf) [2, 4] was 27700 ng·h/mL and 67 µM·h and the AUC(0-t) [2, 4] was 27400 ng·h/mL and 66.4 µM·h. For the same compound, the Cmax [2, 4] was 1920 ng/mL and 4.65 µM, the Tmax [2, 4] was 3 h and the AUC(0-inf) [2, 5] was 29600 ng·h/mL and 71.8 µM·h. The AUC(0-t) [2, 5] was 14600 ng·h/mL and 35.3 µM·h, the Cmax [2, 5] was 1340 ng/mL and 3.25 µM and the Tmax [2, 5] was 7.63 h. For the same compound, the AUC(0-inf) [2, 6] was 31800 ng·h/mL and 77 µM·h and the AUC(0-t) [2, 6] was 23400 ng·h/mL and 56.7 µM·h.
